Source: US6747016B1, “Substituted purine derivatives as inhibitors of cell adhesion” (Aventis Pharma Deutschland GmbH, priority 1999, dated 2004)

Legend:
[1] = molecular target: human vitronectin receptor αvβ3 (Homo sapiens, UniProt P05106+P06756); assay: Kistrin binding assay (K/VnR, αvβ3 ELISA test); details: inhibition of binding of kistrin to human vitronectin receptor
From the text: The inhibition of the binding of kistrin to human vitronectin receptor (VnR) described below is a test method by which the antagonistic action of the compounds of the invention on the vitronectin receptor αvβ3 can be determined (αvβ3 ELISA Test; the test method is abbreviated as “K/VnR” in the listing of the test results).
Kistrin is purified according to the methods of Dennis et al., as described in Proc. Natl. Acad. Sci. USA 87 (1989) 2471 and Proteins: Structure, Function and Genetics 15 (1993) 312.
Purification of Human Vitronectin Receptor (αvβ3)
144 (1987) 475. Human vitronectin receptor αvβ3 can also be obtained from some cell lines (for example from 293 cells, a human embryonic kidney cell line) which are co-transfected with DNA sequences for both subunits αv and β3 of the vitronectin receptor. The subunits are extracted with octyl glycoside and then chromatographed through concanavalin A, heparin-Sepharose and S-300.
Murine monoclonal antibodies which are specific for the β3 subunits of the vitronectin receptor, are prepared according to the method of Newman et al., Blood, 1985, 227, or by a similar process. The rabbit Fab 2 anti-mouse Fc conjugate to horseradish peroxidase (anti-mouse Fc HRP) was obtained from Pel Freeze (Catalog No. 715 305-1).
The ability of substances to inhibit the binding of kistrin to the vitronectin receptor can be determined using an ELISA test. For this purpose, Nunc 96-well microtiter plates are coated with a solution of kistrin (0.002 mg/ml) according to the method of Dennis et al., as described in Proteins: Structure, Function and Genetics 15 (1993) 312. The plates are then washed twice with PBS/0.05% Tween-20 and blocked by incubating (60 min) with bovine serum albumin (BSA, 0.5%, RIA grade or better) in buffer solution (Tris-HCl (50 mM), NaCl (100 mM), MgCl2 (1 mM), CaCl2 (1 mM), MnCl2 (1 mM), pH 7). Solutions of known inhibitors and of the test substances are prepared in concentrations from 2×10^−12 to 2×10^−6 mol/l in assay buffer (BSA (0.5%, RIA grade or better); Tris-HCl (50 mM), NaCl (100 mM), MgCl2 (1 mM), CaCl2 (1 mM), MnCl2 (1 mM), pH 7). The blocked plates are emptied, and in each case 0.025 ml of this solution which contains a defined concentration (2×10^−12 to 2×10^−6 mol/l) either of a known inhibitor or of a test substance, are added to each well. 0.025 ml of a solution of the vitronectin receptor in assay buffer (0.03 mg/ml) is pipetted into each well of the plate and the plate is incubated at room temperature for 60-180 min on a shaker. In the meantime, a solution (6 ml/plate) of a murine monoclonal antibody specific for the β3 subunit of the vitronectin receptor is prepared in assay buffer (0.0015 mg/ml). A second rabbit antibody (0.001 ml of stock solution/6 ml of the murine monoclonal anti-β3 antibody solution) which is an anti-mouse Fc HRP antibody conjugate is added to this solution, and this mixture of murine anti-β3 antibody and rabbit anti-mouse Fc HRP antibody conjugate is incubated during the time of the receptor-inhibitor incubation. The test plates are washed four times with PBS solution which contains 0.05% Tween-20, and in each case 0.05 ml/well of the antibody mixture is pipetted into each well of the plate and incubated for 60-180 min. The plate is washed four times with PBS/0.05% Tween-20 and then developed with 0.05 ml/well of a PBS solution which contains 0.67 mg/ml of o-phenylenediamine and 0.012% of H2O2. Alternatively to this, o-phenylenediamine can be employed in a buffer (pH 5) which contains Na3PO4 and citric acid. The color development is stopped using 1 N H2SO4 (0.05 ml/well). The absorption for each well is measured at 492-405 nm and the data are evaluated by standard methods.

[2] = molecular target: 293 cells cotransfected with αv and β3 subunits of the vitronectin receptor αvβ3, binding to human vitronectin (Homo sapiens, UniProt P05106+P06756); assay: Vitronectin/293 cell test (Vn/293 cell test); format: cell-based; details: inhibition of binding of 293 cells to human vitronectin
293 cells cotransfected with αv and β3 subunits of the vitronectin receptor αvβ3, binding to human vitronectin, sequence (P05106 whole entry): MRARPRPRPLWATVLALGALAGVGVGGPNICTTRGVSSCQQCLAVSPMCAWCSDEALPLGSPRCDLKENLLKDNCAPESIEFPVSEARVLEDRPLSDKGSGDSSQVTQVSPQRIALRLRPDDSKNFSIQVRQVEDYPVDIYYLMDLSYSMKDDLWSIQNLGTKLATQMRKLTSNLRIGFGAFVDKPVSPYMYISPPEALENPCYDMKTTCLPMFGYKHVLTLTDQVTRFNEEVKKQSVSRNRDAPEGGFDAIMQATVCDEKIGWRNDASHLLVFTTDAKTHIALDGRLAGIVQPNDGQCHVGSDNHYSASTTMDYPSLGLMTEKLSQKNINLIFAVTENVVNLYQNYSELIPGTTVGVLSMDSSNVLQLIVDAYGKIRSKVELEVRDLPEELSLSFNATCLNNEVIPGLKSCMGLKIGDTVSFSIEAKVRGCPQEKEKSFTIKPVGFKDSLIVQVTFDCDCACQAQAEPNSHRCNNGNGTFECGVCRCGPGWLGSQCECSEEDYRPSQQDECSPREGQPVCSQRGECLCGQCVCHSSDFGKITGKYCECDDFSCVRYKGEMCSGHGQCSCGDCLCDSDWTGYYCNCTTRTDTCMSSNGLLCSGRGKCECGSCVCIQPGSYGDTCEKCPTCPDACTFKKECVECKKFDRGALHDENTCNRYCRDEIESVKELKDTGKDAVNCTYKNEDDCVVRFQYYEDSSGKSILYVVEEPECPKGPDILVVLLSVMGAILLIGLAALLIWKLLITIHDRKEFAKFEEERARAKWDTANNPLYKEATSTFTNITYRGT
293 cells cotransfected with αv and β3 subunits of the vitronectin receptor αvβ3, binding to human vitronectin, sequence (P06756 whole entry): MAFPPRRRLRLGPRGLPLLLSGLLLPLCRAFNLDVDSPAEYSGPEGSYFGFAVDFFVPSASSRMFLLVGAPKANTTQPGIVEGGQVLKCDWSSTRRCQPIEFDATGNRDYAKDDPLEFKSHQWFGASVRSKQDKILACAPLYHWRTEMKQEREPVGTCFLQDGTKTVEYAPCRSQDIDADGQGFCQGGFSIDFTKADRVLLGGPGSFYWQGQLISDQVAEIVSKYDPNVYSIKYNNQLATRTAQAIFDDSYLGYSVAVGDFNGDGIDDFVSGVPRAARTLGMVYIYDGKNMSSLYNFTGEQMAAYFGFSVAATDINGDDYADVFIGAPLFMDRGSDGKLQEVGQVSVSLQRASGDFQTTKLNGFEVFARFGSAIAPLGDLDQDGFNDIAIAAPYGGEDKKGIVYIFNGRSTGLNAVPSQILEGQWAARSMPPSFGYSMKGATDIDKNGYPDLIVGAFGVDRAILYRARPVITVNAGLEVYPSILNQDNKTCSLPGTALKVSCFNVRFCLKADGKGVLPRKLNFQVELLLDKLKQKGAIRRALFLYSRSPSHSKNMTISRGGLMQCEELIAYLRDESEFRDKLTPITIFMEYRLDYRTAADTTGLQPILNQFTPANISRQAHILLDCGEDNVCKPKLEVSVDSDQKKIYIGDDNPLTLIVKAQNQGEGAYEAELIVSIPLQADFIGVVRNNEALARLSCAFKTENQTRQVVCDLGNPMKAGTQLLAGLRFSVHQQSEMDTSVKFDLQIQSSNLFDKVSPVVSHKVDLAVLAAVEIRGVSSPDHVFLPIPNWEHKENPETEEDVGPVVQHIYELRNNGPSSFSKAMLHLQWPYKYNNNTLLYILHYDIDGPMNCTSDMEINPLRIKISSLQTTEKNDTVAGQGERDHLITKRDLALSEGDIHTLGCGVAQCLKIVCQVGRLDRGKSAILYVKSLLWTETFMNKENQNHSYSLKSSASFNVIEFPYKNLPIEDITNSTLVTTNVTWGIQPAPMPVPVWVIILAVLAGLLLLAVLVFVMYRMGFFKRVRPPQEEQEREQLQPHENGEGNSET
Experimental: 2) Vitronectin/293 Cell Test
In this test the inhibition of binding of 293 cells to human vitronectin (Vn) by the compounds of the invention is determined (the test method is abbreviated as Vn/293 cell test in the listing of the test results).
Purification of Human Vitronectin
Human vitronectin was isolated from human plasma and purified by affinity chromatography according to the method of Yatohgo et al., Cell Structure and Function 23 (1988) 281.
293 cells, a human embryonic kidney cell line, which were cotransfected with DNA sequences for the αv and β3 subunits of the vitronectin receptor αvβ3, were selected for a high rate of expression (>500,000 αvβ3 receptors/cell) according to the FACS method. The selected cells were cultured and sorted again by means of FACS in order to obtain a stable cell line (15 D) with expression rates>1,000,000 copies of αvβ3 per cell.
A Linbro 96-well tissue culture plate with a flat bottom was coated overnight at 4° C. with human vitronectin (0.01 mg/ml, 0.05 ml/well) in phosphate-buffered saline solution (PBS) and then blocked with 0.5% strength BSA (bovine serum albumin). Solutions of the test substances from 10^−10 mol/l to 2×10^−3 mol/l in glucose-containing DMEM medium were prepared and 0.05 ml/well of the solution were added to the plate in each case. The cells which expressed high levels of αvβ3 (for example 15 D) were suspended in glucose-containing DMEM medium and the suspension was adjusted to a content of 25,000 cells/0.05 ml of medium. 0.05 ml of this cell suspension was added to each well and the plate was incubated at 37° C. for 90 min. The plate was washed 3 times with warm PBS in order to remove unbound cells. The bound cells were lyzed in citrate buffer (25 mM, pH 5.0) which contained 0.25% Triton X-100. The hexoseamidase substrate p-nitrophenyl-N-acetyl-β-D-glucosaminide was then added and the plate was incubated at 37° C. for 90 min. The reaction was stopped with a glycine (50 mM)/EDTA (5 mM) buffer (pH 10.4) and the absorption of each well was measured at 405 to 650 nm. The data were analyzed according to standard methods.

[3] = system: bone resorption by osteoclasts; assay: Pit Assay (osteoclast resorption test); format: cell-based; details: inhibition of bone resorption
From the text: The inhibition of bone resorption by the compounds of the invention can be determined, for example, with the aid of an osteoclast resorption test (“Pit Assay”), for example analogously to WO-A-95/32710 which is incorporated herein by reference.

human vitronectin receptor αvβ3, sequence (P06756 31-889 limits assumed): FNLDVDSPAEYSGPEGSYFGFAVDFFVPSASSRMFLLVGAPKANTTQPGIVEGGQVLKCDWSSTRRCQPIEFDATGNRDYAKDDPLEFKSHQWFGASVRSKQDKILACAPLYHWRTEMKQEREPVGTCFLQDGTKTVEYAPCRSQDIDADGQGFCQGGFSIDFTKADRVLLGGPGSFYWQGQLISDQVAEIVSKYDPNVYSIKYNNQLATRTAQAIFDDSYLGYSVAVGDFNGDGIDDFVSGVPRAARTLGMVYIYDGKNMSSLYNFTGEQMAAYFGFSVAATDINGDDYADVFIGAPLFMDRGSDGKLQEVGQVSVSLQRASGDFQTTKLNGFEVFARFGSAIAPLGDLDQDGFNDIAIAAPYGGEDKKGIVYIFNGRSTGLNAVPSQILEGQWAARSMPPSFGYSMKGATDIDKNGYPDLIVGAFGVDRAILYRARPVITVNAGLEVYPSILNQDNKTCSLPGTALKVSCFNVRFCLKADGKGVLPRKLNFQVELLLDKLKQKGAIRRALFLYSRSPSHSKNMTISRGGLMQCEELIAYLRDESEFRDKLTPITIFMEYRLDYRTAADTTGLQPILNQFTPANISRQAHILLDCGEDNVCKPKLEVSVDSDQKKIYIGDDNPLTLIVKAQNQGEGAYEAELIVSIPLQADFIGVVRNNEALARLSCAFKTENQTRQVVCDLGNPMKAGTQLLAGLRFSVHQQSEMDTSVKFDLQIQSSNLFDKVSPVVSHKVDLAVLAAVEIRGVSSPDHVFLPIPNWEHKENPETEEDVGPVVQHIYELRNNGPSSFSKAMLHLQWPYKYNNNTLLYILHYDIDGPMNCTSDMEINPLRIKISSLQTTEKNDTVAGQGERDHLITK
human vitronectin receptor αvβ3, sequence (P06756 891-1048 limits assumed): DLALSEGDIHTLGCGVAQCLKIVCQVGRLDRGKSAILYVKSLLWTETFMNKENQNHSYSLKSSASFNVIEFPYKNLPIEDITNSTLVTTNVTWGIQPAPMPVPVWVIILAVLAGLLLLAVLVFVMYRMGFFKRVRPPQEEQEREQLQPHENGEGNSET
human vitronectin receptor αvβ3, sequence (P05106 27-788): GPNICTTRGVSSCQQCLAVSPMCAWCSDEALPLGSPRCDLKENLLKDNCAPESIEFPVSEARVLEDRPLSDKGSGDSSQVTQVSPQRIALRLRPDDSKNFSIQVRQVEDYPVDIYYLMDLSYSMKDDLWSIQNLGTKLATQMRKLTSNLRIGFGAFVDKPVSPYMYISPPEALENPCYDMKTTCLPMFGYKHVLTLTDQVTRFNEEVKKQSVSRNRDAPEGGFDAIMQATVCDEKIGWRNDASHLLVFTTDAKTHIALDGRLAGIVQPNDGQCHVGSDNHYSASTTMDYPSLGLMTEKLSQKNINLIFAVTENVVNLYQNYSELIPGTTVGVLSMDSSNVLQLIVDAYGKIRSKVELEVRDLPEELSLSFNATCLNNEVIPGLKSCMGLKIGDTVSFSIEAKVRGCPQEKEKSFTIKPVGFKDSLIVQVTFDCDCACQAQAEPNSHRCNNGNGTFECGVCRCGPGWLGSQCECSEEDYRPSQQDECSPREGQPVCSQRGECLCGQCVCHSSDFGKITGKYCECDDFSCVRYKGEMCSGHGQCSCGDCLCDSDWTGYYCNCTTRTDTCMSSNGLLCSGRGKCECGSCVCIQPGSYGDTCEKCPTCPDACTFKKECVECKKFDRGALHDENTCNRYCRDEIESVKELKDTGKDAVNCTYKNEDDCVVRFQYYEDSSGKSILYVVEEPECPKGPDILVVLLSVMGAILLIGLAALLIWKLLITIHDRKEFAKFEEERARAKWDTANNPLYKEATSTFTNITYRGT

An IC50 [1] of 0.0034 µM and an IC50 [2] of 0.042 µM were found for O=C(NC1=NCCCN1)C1CCN(c2ncnc3c2ncn3C[C@H](NS(=O)(=O)c2cccc(C(F)(F)F)c2)C(=O)O)CC1 [Example 6, (2S)-3-(6-(4-(1,4,5,6-Tetrahydropyrimidin-2-ylcarbamoyl)-piperidin-1-yl)-purin-9-yl)-2-(3-trifluoromethyl-benzenesulfonylamino)-propionic acid] in this work.
An IC50 [1] of 0.025 µM and an IC50 [2] of 1.4 µM were found for CCCS(=O)(=O)N[C@@H](Cn1cnc2c(N3CCC(C(=O)NC4=NCCCN4)CC3)ncnc21)C(=O)O [Example 4, (2S)-2-(Propane-1-sulfonylamino)-3-(6-(4-(1,4,5,6-tetrahydropyrimidin-2-ylcarbamoyl)-piperidin-1-yl)-purin-9-yl)-propionic acid] in this work.
An IC50 [1] of 0.038 µM and an IC50 [2] of 2.5 µM were found for O=C(NC1=NCCCN1)C1CCN(c2ncnc3c2ncn3C[C@H](NS(=O)(=O)CC(F)(F)F)C(=O)O)CC1 [Example 9, (2S)-3-(6-(4-(1,4,5,6-Tetrahydropyrimidin-2-ylcarbamoyl)-piperidin-1-yl)-purin-9-yl)-2-(2,2,2-trifluoro-ethanesulfonylamino)-propionic acid] in this work.
An IC50 [1] of 0.005 µM, an IC50 [3] of 0.026 µM and an IC50 [2] of 0.038 µM were found for Cc1cc(C)c(S(=O)(=O)N[C@@H](Cn2cnc3c(N4CCC(C(=O)NC5=NCCCN5)CC4)ncnc32)C(=O)O)c(C)c1 [Example 12, (2S)-3-(6-(4-(1,4,5,6-Tetrahydropyrimidin-2-ylcarbamoyl)-piperidin-1-yl)-purin-9-yl)-2-(2,4,6-trimethyl-benzenesulfonylamino)-propionic acid] in this work.
An IC50 [1] of 0.0065 µM and an IC50 [2] of 0.087 µM were found for Cc1ccc(S(=O)(=O)N[C@@H](Cn2cnc3c(N4CCC(C(=O)NC5=NCCCN5)CC4)ncnc32)C(=O)O)cc1 [Example 11, (2S)-3-(6-(4-(1,4,5,6-Tetrahydropyrimidin-2-ylcarbamoyl)-piperidin-1-yl)-purin-9-yl)-2-(toluene-4-sulfonylamino)-propionic acid] in this work.
An IC50 [1] of 0.0042 µM and an IC50 [2] of 1.12 µM were found for CC(C)CS(=O)(=O)N[C@@H](Cn1cnc2c(N3CCC(C(=O)NC4=NCCCN4)CC3)ncnc21)C(=O)O [Example 10, (2S)-2-(2-Methylpropane-1-sulfonylamino)-3-(6-(4-(1,4,5,6-tetrahydropyrimidin-2-ylcarbamoyl)-piperidin-1-yl)-purin-9-yl)-propionic acid] in this work.
An IC50 [1] of 0.0025 µM, an IC50 [3] of 0.0023 µM and an IC50 [2] of 0.009 µM were found for O=C(NC1=NCCCN1)C1CCN(c2ncnc3c2ncn3C[C@H](NS(=O)(=O)c2ccc3ccccc3c2)C(=O)O)CC1 [Example 2, (2S)-2-(Naphthalene-2-sulfonylamino)-3-(6-(4-(1,4,5,6-tetrahydropyrimidin-2-ylcarbamoyl)-piperidin-1-yl)-purin-9-yl)-propionic acid] in this work.
An IC50 [1] of 0.085 µM was found for O=C(NC1=NCCCN1)C1CCN(c2ncnc3c2ncn3C[C@H](NS(=O)(=O)C(F)(F)F)C(=O)O)CC1 [Example 8, (2S)-3-(6-(4-(1,4,5,6-Tetrahydropyrimidin-2-ylcarbamoyl)-piperidin-1-yl)-purin-9-yl)-2-trifluoromethanesulfonylamino-propionic acid] in this work.
An IC50 [1] of 0.0019 µM, an IC50 [3] of 0.0008 µM and an IC50 [2] of 0.03 µM were found for O=C(NC1=NCCCN1)C1CCN(c2ncnc3c2ncn3C[C@H](NS(=O)(=O)c2cccc3ccccc23)C(=O)O)CC1 [Example 1, (2S)-2-(Naphthalene-1-sulfonylamino)-3-(6-(4-(1 ,4,5,6-tetrahydropyrimidin-2-ylcarbamoyl)-piperidin-1-yl)-purin-9-yl)-propionic acid] in this work.
An IC50 [1] of 0.023 µM and an IC50 [2] of 0.5 µM were found for O=C(NC1=NCCCN1)C1CCN(c2ncnc3c2ncn3C[C@H](NS(=O)(=O)Cc2ccccc2)C(=O)O)CC1 [Example 7, (2S)-2-Phenylmethanesulfonylamino-3-(6-(4-(1,4,5,6-tetrahydropyrimidin-2-ylcarbamoyl)-piperidin-1-yl)-purin-9-yl)-propionic acid] in this work.
An IC50 [1] of 0.0032 µM, an IC50 [3] of 0.015 µM and an IC50 [2] of 0.028 µM were found for O=C(NC1=NCCCN1)C1CCN(c2ncnc3c2ncn3C[C@H](NS(=O)(=O)c2ccc(C(F)(F)F)cc2)C(=O)O)CC1 [Example 5, (2S)-3-(6-(4-(1,4,5,6-Tetrahydropyrimidin-2-ylcarbamoyl)-piperidin-1-yl)-purin-9-yl)-2-(4-trifluoromethyl-benzenesulfonylamino)-propionic acid] in this work.
An IC50 [1] of 0.0045 µM and an IC50 [2] of 0.067 µM were found for CC(C)(C)c1ccc(S(=O)(=O)N[C@@H](Cn2cnc3c(N4CCC(C(=O)NC5=NCCCN5)CC4)ncnc32)C(=O)O)cc1 [Example 3, (2S)-2-(4-tert-Butyl-benzenesulfonylamino)-3-(6-(4-(1,4,5,6-tetrahydropyrimidin-2-ylcarbamoyl)-piperidin-1-yl)-purin-9-yl)-propionic acid] in this work.
